The values below come from ChEMBL document CHEMBL2331489, “Novel cinnoline-based inhibitors of LRRK2 kinase activity” (Bioorg Med Chem Lett, 2013).

Test [1] has as its target Insulin receptor (Homo sapiens) (UniProt P06213). Kind of test: Inhibition of INSR (unknown origin) at 10 uM relative to control.
For test [2], the target named is Mitogen-activated protein kinase 10 (Homo sapiens) (UniProt P53779). Kind of test: Inhibition of MAPK10 (unknown origin) at 10 uM relative to control.
Test [3] concerns the target Dual specificity tyrosine-phosphorylation-regulated kinase 1B (Homo sapiens) (UniProt Q9Y463). Kind of test: Inhibition of DYRK1B (unknown origin) at 10 uM relative to control.
Test [4] concerns the target Serine/threonine-protein kinase PLK1 (Homo sapiens) (UniProt P53350). The test is described as follows: Inhibition of PLK1 (unknown origin) at 10 uM relative to control.
Test [5] concerns the target Receptor-type tyrosine-protein kinase FLT3 (Homo sapiens) (UniProt P36888). Kind of test: Inhibition of FLT3 (unknown origin) at 10 uM relative to control.
The target of test [6] is Calcium/calmodulin-dependent protein kinase type II subunit alpha (Homo sapiens) (UniProt Q9UQM7). Kind of test: Inhibition of CAMK2alpha (unknown origin) at 10 uM relative to control.
Test [7] has as its target Leucine-rich repeat serine/threonine-protein kinase 2 (Homo sapiens, UniProt Q5S007). The test is described as follows: Inhibition of LRRK2 (unknown origin) at 10 uM relative to control.
The target in test [8] is Tyrosine-protein kinase Lck (Homo sapiens) (UniProt P06239). The test is described as follows: Inhibition of LCK (unknown origin) at 10 uM relative to control.
Test [9] deals with Serine/threonine-protein kinase PAK 4 (Homo sapiens) (UniProt O96013). The test is described as follows: Inhibition of PAK4 (unknown origin) at 10 uM relative to control.
For test [10], the target named is Proto-oncogene tyrosine-protein kinase receptor Ret (Homo sapiens) (UniProt P07949). Kind of test: Inhibition of RET (unknown origin) at 10 uM relative to control.
Test [11] deals with T1, Aurora kinase A (Homo sapiens) (UniProt O14965).
T1 sequence (whole entry): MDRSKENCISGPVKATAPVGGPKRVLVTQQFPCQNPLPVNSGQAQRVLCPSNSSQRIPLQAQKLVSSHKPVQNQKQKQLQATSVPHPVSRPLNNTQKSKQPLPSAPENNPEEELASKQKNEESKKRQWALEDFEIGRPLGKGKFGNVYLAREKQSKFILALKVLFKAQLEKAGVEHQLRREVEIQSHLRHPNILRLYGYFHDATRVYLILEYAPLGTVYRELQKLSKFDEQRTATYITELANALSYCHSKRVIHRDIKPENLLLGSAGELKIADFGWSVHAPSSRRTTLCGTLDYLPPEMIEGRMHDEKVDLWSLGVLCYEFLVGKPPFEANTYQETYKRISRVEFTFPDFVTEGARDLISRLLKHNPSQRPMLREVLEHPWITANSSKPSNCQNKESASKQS
The test is described as follows: Inhibition of Aurora A (unknown origin) at 10 uM relative to control.

For test [12], the target named is Dual specificity protein kinase CLK1 (Homo sapiens) (UniProt P49759). The test is described as follows: Inhibition of CLK1 (unknown origin) at 10 uM relative to control.
Test [13] addresses Tyrosine-protein kinase ABL1 (Homo sapiens) (UniProt P00519). The test is described as follows: Inhibition of ABL1 (unknown origin) at 10 uM relative to control.
Test [14] deals with PI3-kinase p110-alpha/p85-alpha (Homo sapiens) (UniProt P27986+P42336). Kind of test: Inhibition of PIK3CA/PIK3R1 (unknown origin) at 10 uM relative to control. In kind it is protein-complex assay.
Test [15] addresses Glycogen synthase kinase-3 beta (Homo sapiens) (UniProt P49841). Kind of test: Inhibition of GSK3beta (unknown origin) at 10 uM relative to control.
Test [16] concerns the target T2, Serine/threonine-protein kinase Chk1 (Homo sapiens) (UniProt O14757).
T2 sequence (whole entry): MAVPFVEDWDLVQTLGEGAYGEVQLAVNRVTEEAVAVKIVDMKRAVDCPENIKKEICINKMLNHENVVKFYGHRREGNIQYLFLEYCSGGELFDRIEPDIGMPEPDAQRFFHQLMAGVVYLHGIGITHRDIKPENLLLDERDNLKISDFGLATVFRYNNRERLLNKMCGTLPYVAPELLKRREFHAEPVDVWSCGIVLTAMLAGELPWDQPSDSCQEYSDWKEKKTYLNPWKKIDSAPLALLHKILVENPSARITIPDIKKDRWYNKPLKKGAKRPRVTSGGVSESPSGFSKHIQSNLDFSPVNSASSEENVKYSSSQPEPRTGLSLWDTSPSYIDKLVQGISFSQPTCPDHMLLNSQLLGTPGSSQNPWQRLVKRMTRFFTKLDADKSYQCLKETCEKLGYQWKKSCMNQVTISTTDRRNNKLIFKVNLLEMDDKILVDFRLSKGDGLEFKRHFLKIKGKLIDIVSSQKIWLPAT
The test is described as follows: Inhibition of CHK1 (unknown origin) at 10 uM relative to control.

The target in test [17] is RAF proto-oncogene serine/threonine-protein kinase (Homo sapiens) (UniProt P04049). Kind of test: Inhibition of RAF1 (unknown origin) at 10 uM relative to control.
In test [18] the target is Cyclin-dependent kinase 5/CDK5 activator 1 (Homo sapiens) (UniProt Q00535+Q15078). Kind of test: Inhibition of CDK5/P25 (unknown origin) at 10 uM relative to control. In kind it is protein-complex assay.
The target of test [19] is Platelet-derived growth factor receptor alpha (Homo sapiens, UniProt P16234). Kind of test: Inhibition of PDGFRalpha (unknown origin) at 10 uM relative to control.
Test [20] deals with Rho-associated protein kinase 2 (Homo sapiens) (UniProt O75116). The test is described as follows: Inhibition of ROCK2 (unknown origin) at 10 uM relative to control.
Test [21] concerns the target cAMP-dependent protein kinase catalytic subunit alpha (Homo sapiens) (UniProt P17612). The test is described as follows: Inhibition of PRKACA (unknown origin) at 10 uM relative to control.
Test [22] deals with RAC-alpha serine/threonine-protein kinase (Homo sapiens) (UniProt P31749). The test is described as follows: Inhibition of AKT1 (unknown origin) at 10 uM relative to control.
Test [23] addresses Receptor tyrosine-protein kinase erbB-4 (Homo sapiens) (UniProt Q15303). Kind of test: Inhibition of ERBB4 (unknown origin) at 10 uM relative to control.

SMILES strings stand for the structures.

Platelet-derived growth factor receptor alpha, sequence (P16234 whole entry): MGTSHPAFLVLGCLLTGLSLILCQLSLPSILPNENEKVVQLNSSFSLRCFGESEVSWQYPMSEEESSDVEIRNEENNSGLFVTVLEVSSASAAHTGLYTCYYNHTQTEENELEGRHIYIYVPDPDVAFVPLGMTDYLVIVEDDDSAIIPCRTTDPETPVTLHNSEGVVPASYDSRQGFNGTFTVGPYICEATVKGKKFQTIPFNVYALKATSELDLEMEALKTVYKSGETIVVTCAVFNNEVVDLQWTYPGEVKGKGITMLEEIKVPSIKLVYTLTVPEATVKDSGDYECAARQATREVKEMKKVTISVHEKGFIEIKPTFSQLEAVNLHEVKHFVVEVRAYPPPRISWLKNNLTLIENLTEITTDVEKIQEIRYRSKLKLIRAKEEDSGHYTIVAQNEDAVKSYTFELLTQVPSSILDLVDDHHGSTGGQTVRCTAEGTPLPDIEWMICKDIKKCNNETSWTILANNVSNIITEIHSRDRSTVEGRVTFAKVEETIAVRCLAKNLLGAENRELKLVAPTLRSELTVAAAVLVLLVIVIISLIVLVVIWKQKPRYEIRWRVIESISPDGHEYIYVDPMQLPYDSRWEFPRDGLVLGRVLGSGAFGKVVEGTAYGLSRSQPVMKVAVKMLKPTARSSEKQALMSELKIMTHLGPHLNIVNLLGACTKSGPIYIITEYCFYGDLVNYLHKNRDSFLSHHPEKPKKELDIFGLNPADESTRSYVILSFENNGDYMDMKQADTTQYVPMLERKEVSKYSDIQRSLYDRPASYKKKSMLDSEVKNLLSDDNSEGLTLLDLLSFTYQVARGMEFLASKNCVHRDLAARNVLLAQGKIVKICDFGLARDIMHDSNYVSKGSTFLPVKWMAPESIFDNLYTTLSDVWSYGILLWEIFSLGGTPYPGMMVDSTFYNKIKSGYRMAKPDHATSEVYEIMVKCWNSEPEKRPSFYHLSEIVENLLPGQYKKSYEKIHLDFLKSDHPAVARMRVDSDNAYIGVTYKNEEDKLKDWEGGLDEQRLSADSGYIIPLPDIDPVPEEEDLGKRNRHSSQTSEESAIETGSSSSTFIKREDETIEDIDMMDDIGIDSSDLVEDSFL
RAF proto-oncogene serine/threonine-protein kinase (Homo sapiens), sequence (P04049 whole entry): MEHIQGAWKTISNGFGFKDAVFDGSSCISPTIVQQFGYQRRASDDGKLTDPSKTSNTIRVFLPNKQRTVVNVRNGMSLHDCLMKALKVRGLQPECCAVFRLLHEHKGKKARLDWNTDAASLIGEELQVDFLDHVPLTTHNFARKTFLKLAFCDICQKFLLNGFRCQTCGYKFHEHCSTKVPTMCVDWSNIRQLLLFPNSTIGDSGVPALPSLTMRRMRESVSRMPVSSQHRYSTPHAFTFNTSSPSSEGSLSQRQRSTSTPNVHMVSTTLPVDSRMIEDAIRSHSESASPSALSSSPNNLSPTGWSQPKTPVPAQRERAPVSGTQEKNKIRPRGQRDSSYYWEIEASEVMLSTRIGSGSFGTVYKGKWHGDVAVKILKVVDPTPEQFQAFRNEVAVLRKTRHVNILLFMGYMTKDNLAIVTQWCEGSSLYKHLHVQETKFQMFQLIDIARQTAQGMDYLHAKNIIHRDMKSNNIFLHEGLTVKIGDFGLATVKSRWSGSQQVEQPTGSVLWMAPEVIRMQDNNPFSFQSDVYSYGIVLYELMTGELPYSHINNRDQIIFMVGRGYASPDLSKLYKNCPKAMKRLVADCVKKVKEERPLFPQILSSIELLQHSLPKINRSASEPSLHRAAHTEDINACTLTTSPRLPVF
Calcium/calmodulin-dependent protein kinase type II subunit alpha (Homo sapiens), sequence (Q9UQM7 whole entry): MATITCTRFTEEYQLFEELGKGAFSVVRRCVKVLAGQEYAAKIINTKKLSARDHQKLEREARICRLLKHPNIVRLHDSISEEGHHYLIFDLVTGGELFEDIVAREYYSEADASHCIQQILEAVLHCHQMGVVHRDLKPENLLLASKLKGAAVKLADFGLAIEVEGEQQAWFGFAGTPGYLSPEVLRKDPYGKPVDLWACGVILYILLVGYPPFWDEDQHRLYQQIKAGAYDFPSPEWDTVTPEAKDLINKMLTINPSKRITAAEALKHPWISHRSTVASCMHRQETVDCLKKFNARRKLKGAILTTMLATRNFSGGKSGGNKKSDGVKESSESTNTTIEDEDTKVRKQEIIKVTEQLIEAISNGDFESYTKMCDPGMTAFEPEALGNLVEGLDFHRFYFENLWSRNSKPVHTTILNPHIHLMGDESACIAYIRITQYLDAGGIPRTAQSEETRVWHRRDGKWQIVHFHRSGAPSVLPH
Leucine-rich repeat serine/threonine-protein kinase 2, sequence (Q5S007 whole entry): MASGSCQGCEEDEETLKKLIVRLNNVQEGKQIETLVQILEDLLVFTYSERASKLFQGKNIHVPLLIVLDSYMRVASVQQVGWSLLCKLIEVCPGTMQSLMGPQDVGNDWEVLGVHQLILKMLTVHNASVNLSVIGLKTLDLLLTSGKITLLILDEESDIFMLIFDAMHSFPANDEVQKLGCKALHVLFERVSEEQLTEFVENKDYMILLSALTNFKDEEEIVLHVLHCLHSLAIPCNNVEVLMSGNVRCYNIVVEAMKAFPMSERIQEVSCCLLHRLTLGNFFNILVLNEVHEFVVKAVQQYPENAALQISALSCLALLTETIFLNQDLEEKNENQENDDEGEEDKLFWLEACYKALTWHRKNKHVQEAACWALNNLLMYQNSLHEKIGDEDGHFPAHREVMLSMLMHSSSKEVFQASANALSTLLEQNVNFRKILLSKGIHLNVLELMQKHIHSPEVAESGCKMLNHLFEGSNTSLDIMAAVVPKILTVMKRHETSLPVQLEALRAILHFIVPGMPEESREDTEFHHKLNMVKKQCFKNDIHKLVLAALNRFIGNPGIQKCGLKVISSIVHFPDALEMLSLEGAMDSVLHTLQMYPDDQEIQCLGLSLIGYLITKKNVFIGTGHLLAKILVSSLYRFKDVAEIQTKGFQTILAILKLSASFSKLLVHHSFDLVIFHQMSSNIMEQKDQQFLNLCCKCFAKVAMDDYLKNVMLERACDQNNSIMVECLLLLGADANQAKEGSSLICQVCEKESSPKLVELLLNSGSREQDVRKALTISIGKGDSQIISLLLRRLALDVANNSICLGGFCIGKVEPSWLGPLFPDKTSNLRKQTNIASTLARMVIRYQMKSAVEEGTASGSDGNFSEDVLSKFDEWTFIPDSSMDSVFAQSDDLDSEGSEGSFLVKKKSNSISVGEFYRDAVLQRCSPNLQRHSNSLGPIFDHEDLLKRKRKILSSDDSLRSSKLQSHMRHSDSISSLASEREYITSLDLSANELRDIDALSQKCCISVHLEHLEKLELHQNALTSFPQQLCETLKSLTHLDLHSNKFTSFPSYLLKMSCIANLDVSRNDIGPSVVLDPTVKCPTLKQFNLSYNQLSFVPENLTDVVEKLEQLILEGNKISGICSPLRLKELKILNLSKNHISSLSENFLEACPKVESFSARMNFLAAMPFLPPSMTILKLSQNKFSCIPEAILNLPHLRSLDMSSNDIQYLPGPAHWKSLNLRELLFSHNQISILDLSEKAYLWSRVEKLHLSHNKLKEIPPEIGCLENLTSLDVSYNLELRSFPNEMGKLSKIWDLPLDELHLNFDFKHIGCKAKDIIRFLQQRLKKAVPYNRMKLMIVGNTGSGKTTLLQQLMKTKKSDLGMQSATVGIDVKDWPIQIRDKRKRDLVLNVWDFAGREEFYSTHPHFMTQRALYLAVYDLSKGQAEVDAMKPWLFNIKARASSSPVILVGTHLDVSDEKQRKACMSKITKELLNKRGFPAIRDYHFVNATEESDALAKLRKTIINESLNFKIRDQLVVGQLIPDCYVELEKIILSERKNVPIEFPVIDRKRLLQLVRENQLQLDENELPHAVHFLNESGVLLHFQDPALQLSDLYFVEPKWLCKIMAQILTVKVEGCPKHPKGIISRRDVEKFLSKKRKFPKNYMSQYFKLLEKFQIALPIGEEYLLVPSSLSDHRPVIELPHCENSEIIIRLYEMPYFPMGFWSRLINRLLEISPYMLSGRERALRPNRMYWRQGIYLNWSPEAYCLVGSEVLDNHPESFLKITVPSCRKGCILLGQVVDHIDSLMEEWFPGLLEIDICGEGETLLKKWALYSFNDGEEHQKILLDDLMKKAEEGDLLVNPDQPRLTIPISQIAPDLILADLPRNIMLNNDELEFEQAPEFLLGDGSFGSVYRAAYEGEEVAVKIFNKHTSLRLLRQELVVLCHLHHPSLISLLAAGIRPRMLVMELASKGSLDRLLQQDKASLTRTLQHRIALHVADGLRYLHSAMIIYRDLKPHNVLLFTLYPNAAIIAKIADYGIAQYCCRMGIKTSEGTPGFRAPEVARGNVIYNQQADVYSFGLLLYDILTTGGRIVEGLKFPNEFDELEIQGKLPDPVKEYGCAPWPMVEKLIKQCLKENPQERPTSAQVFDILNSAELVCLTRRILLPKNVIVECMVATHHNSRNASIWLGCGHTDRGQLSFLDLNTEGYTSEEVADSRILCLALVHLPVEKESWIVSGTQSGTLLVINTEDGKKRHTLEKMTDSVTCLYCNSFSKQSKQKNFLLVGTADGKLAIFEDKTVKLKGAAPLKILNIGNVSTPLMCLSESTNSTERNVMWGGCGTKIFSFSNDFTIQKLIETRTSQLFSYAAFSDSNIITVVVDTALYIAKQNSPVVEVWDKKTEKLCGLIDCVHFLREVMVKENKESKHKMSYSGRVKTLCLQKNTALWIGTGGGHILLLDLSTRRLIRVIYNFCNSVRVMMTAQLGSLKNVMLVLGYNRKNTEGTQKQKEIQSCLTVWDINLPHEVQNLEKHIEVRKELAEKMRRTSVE

`CC(C)Nc1c(C(N)=O)nnc2cc(N3CCOCC3)ccc12`: the inhibition in test [1] was -1%; in [2], 17%; in [3], 7%; in [4] it was 3%; in test [5], 99%; in [6], 17%. The inhibition in test [7] was 99%; in [8], 75%; in test [9], 59%; in [10], 83%; in [11], 81%; in test [12] it was 4%. Besides, the inhibition came to 56% in [13]; 15% in test [14]; 42% in [15]; 93% in [16]; 27% in [17]; 3% in test [18]. Besides, the inhibition is 98% in test [19]; 78% in test [20]; -2% in test [21]; 1% in [22]; 15% in test [23].

For orientation: inhibition means the relative decrease from the control value, in per cent.
